In PubChem BioAssay AID1963866 (Molecular Pharmacology Branch, DTP, NCI, 2024):

Tested on: PDC KRAS tumor spheroids with HUVEC/MSC, viability
Assay: Anticancer human tumor 349418-098-R-PDC patient-derived lung adenocarcinoma cell line growth inhibition [KRAS2]
Conditions: for IC50: curve of first compound; for viability, T/C: stronger effect = lower value; active = viability on the fitted dose curve at most 10% of control; inactive = the rest
Method in brief: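 Combination screen of spheroid viability in tumor-cell co-cultures with endothelial (HUVEC) and mesenchymal stem cell stroma. Each agent was tested in half-log dilutions, topping at clinical Cmax or at 10 microM without a known Cmax.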

[1] = second compound 0.1 µM, first compound 0.0316 µM
[2] = second compound 0.316 µM, first compound 0.0316 µM
[3] = second compound 1 µM, first compound 0.0316 µM
[4] = second compound 3.16 µM, first compound 0.0316 µM
[5] = second compound 10 µM, first compound 0.0316 µM
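Also: spheroids exposed to compounds for seven days before readout.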

COC(=O)c1ccc2c(C(=Nc3ccc(N(C)C(=O)CN4CCN(C)CC4)cc3)c3ccccc3)c(O)[nH]c2c1 + CC1OCC2(CCN(c3cnc(Sc4ccnc(N)c4Cl)c(N)n3)CC2)C1N
600 nM: IC50 (second compound 10 µM)
1230 nM: IC50 (second compound 1 µM)
inactive: viability, T/C [1] 100% | viability, T/C (second compound 0.1 µM, first compound 0.1 µM) 104% | viability, T/C (second compound 0.1 µM, first compound 0.316 µM) 82.3% | viability, T/C (second compound 0.1 µM, first compound 1 µM) 68.1% | viability, T/C (second compound 0.1 µM, first compound 3.16 µM) 12.1% | viability, T/C (second compound 0.1 µM, first compound 10 µM) 15.3% | viability, T/C [2] 102% | viability, T/C (second compound 0.316 µM, first compound 0.1 µM) 93.3% | viability, T/C (second compound 0.316 µM, first compound 0.316 µM) 92.5% | viability, T/C (second compound 0.316 µM, first compound 1 µM) 68.7% | viability, T/C (second compound 0.316 µM, first compound 3.16 µM) 7.79% | viability, T/C (second compound 0.316 µM, first compound 10 µM) 14.9% | viability, T/C [3] 82.6% | viability, T/C (second compound 1 µM, first compound 0.1 µM) 114% | viability, T/C (second compound 1 µM, first compound 0.316 µM) 71.5% | viability, T/C (second compound 1 µM, first compound 1 µM) 63.6% | viability, T/C (second compound 1 µM, first compound 3.16 µM) 12.2% | viability, T/C [4] 79.2% | viability, T/C (second compound 3.16 µM, first compound 0.1 µM) 101% | viability, T/C (second compound 3.16 µM, first compound 0.316 µM) 75.3% | viability, T/C (second compound 3.16 µM, first compound 1 µM) 54.3% | viability, T/C (second compound 3.16 µM, first compound 3.16 µM) 14% | viability, T/C [5] 81.2% | viability, T/C (second compound 10 µM, first compound 0.1 µM) 75.4% | viability, T/C (second compound 10 µM, first compound 0.316 µM) 61.5% | viability, T/C (second compound 10 µM, first compound 1 µM) 42.2% | viability, T/C (second compound 10 µM, first compound 3.16 µM) 14.8%
1060 nM: IC50 (second compound 3.16 µM)
1450 nM: IC50 (second compound 0.1 µM)
active: viability, T/C (second compound 1 µM, first compound 10 µM) 12.3% | viability, T/C (second compound 3.16 µM, first compound 10 µM) 11.5% | viability, T/C (second compound 10 µM, first compound 10 µM) 7.52%
1460 nM: IC50 (second compound 0.316 µM)

CC(=O)Nc1cccc(-n2c(=O)n(C3CC3)c(=O)c3c(Nc4ccc(I)cc4F)n(C)c(=O)c(C)c32)c1 + CC1OCC2(CCN(c3cnc(Sc4ccnc(N)c4Cl)c(N)n3)CC2)C1N
active: viability, T/C (second compound 0.1 µM, first compound 0.001 µM) 8.26% | viability, T/C (second compound 0.1 µM, first compound 0.00316 µM) 7.14% | viability, T/C (second compound 0.1 µM, first compound 0.01 µM) 6.71% | viability, T/C [1] 4.89% | viability, T/C (second compound 0.316 µM, first compound 0.000316 µM) 9.13% | viability, T/C (second compound 0.316 µM, first compound 0.001 µM) 6.31% | viability, T/C (second compound 0.316 µM, first compound 0.00316 µM) 6.44% | viability, T/C (second compound 0.316 µM, first compound 0.01 µM) 5.73% | viability, T/C [2] 4.97% | viability, T/C (second compound 1 µM, first compound 0.000316 µM) 6.75% | viability, T/C (second compound 1 µM, first compound 0.001 µM) 5.3% | viability, T/C (second compound 1 µM, first compound 0.00316 µM) 5.39% | viability, T/C (second compound 1 µM, first compound 0.01 µM) 5.41% | viability, T/C [3] 4.31% | viability, T/C (second compound 3.16 µM, first compound 0.000316 µM) 6.1% | viability, T/C (second compound 3.16 µM, first compound 0.001 µM) 5.56% | viability, T/C (second compound 3.16 µM, first compound 0.00316 µM) 4.05% | viability, T/C (second compound 3.16 µM, first compound 0.01 µM) 3.76% | viability, T/C [4] 3.53% | viability, T/C (second compound 10 µM, first compound 0.000316 µM) 6.01% | viability, T/C (second compound 10 µM, first compound 0.001 µM) 3.71% | viability, T/C (second compound 10 µM, first compound 0.00316 µM) 3.71% | viability, T/C (second compound 10 µM, first compound 0.01 µM) 3.6% | viability, T/C [5] 3.62%
inactive: viability, T/C (second compound 0.1 µM, first compound 0.0001 µM) 25% | viability, T/C (second compound 0.1 µM, first compound 0.000316 µM) 10.6% | viability, T/C (second compound 0.316 µM, first compound 0.0001 µM) 13.9% | viability, T/C (second compound 1 µM, first compound 0.0001 µM) 12.5% | viability, T/C (second compound 3.16 µM, first compound 0.0001 µM) 16.2% | viability, T/C (second compound 10 µM, first compound 0.0001 µM) 18.9%
< 0.1 nM: IC50 (second compound 0.1 µM) | IC50 (second compound 0.316 µM) | IC50 (second compound 1 µM) | IC50 (second compound 3.16 µM) | IC50 (second compound 10 µM)
